Laboratory results: US9302996B2, “Continuous arycyclic compound” (MITSUBISHI TANABE PHARMA CORPORATION, priority 2010, dated 2016)

What was measured:
ICR mice = test: Triglyceride (TG) in blood plasma increase-inhibiting action due to lipid administration; type: in vivo; settings: Mus musculus; male ICR mice, 5 mg/kg oral, lipid (Intralipos 20%) after 30 minutes, plasma TG 2 hours after lipid; read-out: Inhibiting rate of TG-increase in blood plasma (5 mg/kg)
Protocol: 6 to 9 weeks-old male ICR mice were fasted overnight, and Test compound suspended in 0.2% carboxymethyl cellulose solution was orally administered to the mice. A lipid (Intralipos 20%, OTSUKA PHARMACEUTICAL CO., LTD., 10 mL/kg) was orally administered after 30 minutes. Blood was collected from tail vein immediately before the lipid administration, and after 2 hours from the same to obtain blood plasma. Measurement of TG in blood plasma was carried out by using a triglyceride E Test Wako (Wako Pure Chemical Industries, Ltd.), and an increased value of TG in blood plasma by administration of the lipid was calculated. An increased value of TG in blood plasma in a solvent control group was used as a control, and an inhibiting rate in increase of TG in blood plasma in the Test compound administered group was calculated.

C57BL/6J mice = test: Antifeeding activity (high fat diet intake up to 4 hours); type: in vivo; settings: Mus musculus, male C57BL/6J mice, 5 mg/kg oral, food ingested up to 4 hours, read-out: Antifeeding rate (5 mg/kg)
Protocol: 7 to 10 weeks-old male C57BL/6J mice were fasted overnight, and the test compound suspended in 0.2% carboxymethylcellulose solution was orally administered. Immediately after the administration, high fat diet (Oriental Yeast Co., Ltd, 60 cal % fat) was provided and freely fed. An amount of food ingested up to 4 hours was measured, and a lowering rate (an antifeeding rate) of the amount of food ingested in the Test compound administered group was calculated as compared to that of the solvent control group as a control.

SMILES | inhibition in vivo at 5 mg/kg (ICR mice) [%] | inhibition in vivo at 5 mg/kg (C57BL/6J mice) [%]
CC(C)(COc1ccc(-c2ccc(-c3ncc(CCC4CC4)[nH]3)cn2)cc1)C(=O)O [Example 30] | 60 | 68
CC(C)(COc1ccc(-c2ccc(-c3ncc(C4CCCCCC4)[nH]3)cn2)cc1)C(=O)O [Example 31] | 86 | 65
CCCc1cnc(-c2ccc(-c3ccc(OCC(C)(C)C(=O)O)cc3)nc2)[nH]1 [Example 32] | 71 | 42
Cc1cc(-c2ccc(OCC(C)(C)C(=O)O)cc2)ncc1-c1ncc(C2(C(F)(F)F)CC2)[nH]1 [Example 35-3), 2,2-dimethyl-3-[4-(4-methyl-5-{5-[1-(trifluoromethyl)cyclopropyl]-1H-imidazol-2-yl}pyridin-2-yl)phenoxy]-propanoic acid] | 54 | 56
Cc1cc(OCC(C)(C)C(=O)O)ncc1-c1ccc(-c2ncc(C(C)(C)C(F)(F)F)[nH]2)nc1 [Example 47] | 72 | 44
CC(C)(COc1cnc(-c2ccc(-c3ncc(C4(C(F)(F)F)CC4)[nH]3)cc2)cn1)C(=O)O [Example 49] | 48 | 58
CC(C)(COc1ccc(-c2ccc(-c3ncc(C4CCCCC4)[nH]3)cn2)cc1)C(=O)O [Example 56] | 61 | 76
CCc1cnc(-c2ccc(-c3ccc(OCC(C)(C)C(=O)O)cc3)nc2)[nH]1 [Example 58-2), 3-[4-[5-(5-ethyl-1H-imidazol-2-yl)-2-pyridyl]phenoxy]-2,2-dimethylpropanoic acid] | 64 | 65
CC(C)Cc1cnc(-c2ccc(-c3ccc(OCC(C)(C)C(=O)O)nc3)nc2)[nH]1 [Example 59] | 74 | 50
O=C(O)C1(COc2ccc(-c3ccc(-c4ncc(C(F)(F)F)[nH]4)cn3)cc2)CC1 [Example 60-3), 1-[[4-[5-[5-(trifluoromethyl)-1H-imidazol-2-yl]-2-pyridyl]phenoxy]methyl]cyclopropanecarboxylic acid] | 48 | 59
CC(C)(COc1ccc(-c2ccc(-c3ncc(C(F)(F)F)[nH]3)cn2)c(F)c1)C(=O)O [Example 64] | 60 | 78
CC(C)(COc1ccc(-c2ccc(-c3ncc(C(F)(F)F)[nH]3)cn2)cc1)CC(=O)O [Example 65] | 75 | 79
CC(C)(COc1ncc(-c2ccc(-c3ncc(C(F)(F)F)[nH]3)cc2)cn1)C(=O)O [Example 67] | 70 | 58
CC(C)(COc1ccc(-c2ccc(-c3ncc(C(F)(F)F)[nH]3)nc2)cc1)C(=O)O [Example 68] | 64 | 63
Cc1cc(OCC2(C(=O)O)CC2)ccc1-c1ccc(-c2ncc(C(F)(F)F)[nH]2)cn1 [Example 71] | 50 | 29
CC(C)(COc1ncc(-c2ccc(-c3ncc(C(F)(F)F)[nH]3)c(Cl)c2)cc1F)C(=O)O [Example 82] | 47 | 42
CCc1cc(OCC(C)(C)C(=O)O)ccc1-c1ccc(-c2ncc(C(F)(F)F)[nH]2)cn1 [Example 85-4), 3-(3-ethyl-4-{5-[5-(trifluoromethyl)-1H-imidazol-2-yl]pyridin-2-yl}phenoxy)-2,2-dimethylpropanoic acid] | 69 | 70
COc1cc(OCC(C)(C)C(=O)O)ccc1-c1ccc(-c2ncc(C(F)(F)F)[nH]2)cn1 [Example 86-3), 3-[3-methoxy-4-[5-[5-(trifluoromethyl)-1H-imidazol-2-yl]-2-pyridyl]phenoxy]-2,2-dimethylpropanoic acid] | 68 | 21
CC(C)(COc1ccc(-c2ccc(-c3ncc(C4(C(F)(F)F)CCC4)[nH]3)cn2)cc1)C(=O)O [Example 88-3), sodium 2,2-dimethyl-3-[4-(5-{5-[1-(trifluoromethyl)cyclobutyl]-1H-imidazol-2-yl}pyridin-2-yl)phenoxy)propanoate] | 65 | 55
CC(C)(COc1ncc(-c2ccc(-c3ncc(C(F)(F)F)[nH]3)cc2)cc1F)C(=O)O [Example 90] | 83 | 75

SMILES | inhibition in vivo at 5 mg/kg (ICR mice) [%] | inhibition in vivo at 5 mg/kg (C57BL/6J mice) [%]
CC(C)(COc1cnc(-c2ccc(-c3ncc(C(F)(F)F)[nH]3)c(F)c2)cn1)C(=O)O [Example 91] | 51 | 51
CC(C)(COc1ccc(-c2ccc(-c3nc(C(F)(F)F)c[nH]3)cc2)cc1)C(=O)O [Example 93-3), 3-({4′-[5-(trifluoromethyl)-1H-imidazol-2-yl]biphenyl-4-yl}oxy)-2,2-dimethylpropanoic acid] | 67 | 68
Cc1cc(OCC2(C(=O)O)CCC2)ncc1-c1ccc(-c2ncc(C(F)(F)F)[nH]2)nc1 [Example 97-5), 1-[({4-methyl-6′-[5-(trifluoromethyl)-1H-imidazol-2-yl]-3,3′-bipyridin-6-yl}oxy)methyl]cyclobutanecarboxylic acid] | 102 | 92
Cc1cc(OCC2(C(=O)O)CCC2)ncc1-c1ccc(-c2ncc(C(F)(F)F)[nH]2)c(F)c1 [Example 98-3), 1-{[(5-{3-fluoro-4-[5-(trifluoromethyl)-1H-imidazol-2-yl]phenyl}-4-methylpyridin-2-yl)oxy]methyl}cyclobutanecarboxylic acid] | 105 | 89
Cc1cc(OCC2(C(=O)O)CCC2)ncc1-c1cnc(-c2ncc(C(F)(F)F)[nH]2)c(Cl)c1 [Example 99-6), 1-[({5′-chloro-4-methyl-6′-[5-(trifluoromethyl)-1H-imidazol-2-yl]-3,3′-bipyridin-6-yl}oxy)methyl]cyclobutanecarboxylic acid] | 95 | 85
Cc1cc(OCC2(C(=O)O)CCC2)ncc1-c1ccc(-c2ncc(C(F)(F)F)[nH]2)c(Cl)c1 [Example 101-3), 1-{[(5-{3-chloro-4-[5-(trifluoromethyl)-1H-imidazol-2-yl]phenyl}-4-methylpyridin-2-yl)oxy]methyl}cyclobutanecarboxylic acid] | 71 | 57
Cc1cc(OCC(C)(C)C(=O)O)ncc1-c1ccc(-c2ncc(CC(C)C)[nH]2)cc1 [Example 104] | 67 | 62
Cc1cc(OCC(C)(C)C(=O)O)ncc1-c1ccc(-c2ncc(CC3CC3)[nH]2)cc1 [Example 108] | 52 | 62
Cc1cc(OCC(C)(C)C(=O)O)ncc1-c1ccc(-c2ncc(CC3CC3)[nH]2)c(C)c1 [Example 109] | 50 | 41
Cc1cc(OCC(C)(C)C(=O)O)ncc1-c1ccc(-c2ncc(C(C)(C)C(F)(F)F)[nH]2)c(F)c1 [Example 115] | 50 | 62
Cc1cc(OCC(C)(C)C(=O)O)ncc1-c1ccc(-c2ncc(C(F)(F)C(F)(F)F)[nH]2)nc1 [Example 116] | 82 | 76
Cc1cc(OCC(C)(C)C(=O)O)ncc1-c1ccc(-c2ncc(CC3CC3)[nH]2)nc1 [Example 118] | 64 | 61
Cc1cc(OCC(C)(C)C(=O)O)ncc1-c1ccc(-c2ncc(CC3CC3)[nH]2)c(Cl)c1 [Example 121] | 53 | 57
Cc1cc(OCC(C)(C)C(=O)O)ncc1-c1ccc(-c2ncc(C(F)(F)C(F)(F)F)[nH]2)c(F)c1 [Example 124] | 98 | 75
Cc1cc(OCC2(C(=O)O)CC2)ncc1-c1ccc(-c2ncc(C(F)(F)F)[nH]2)nc1 [Example 132] | 65 | 47
Cc1cc(OCC2(C(=O)O)CC2)ncc1-c1ccc(-c2ncc(C(F)(F)F)[nH]2)c(F)c1 [Example 133] | 75 | 83
CCC(CC)(COc1cc(C)c(-c2ccc(-c3ncc(C(F)(F)F)[nH]3)c(F)c2)cn1)C(=O)O [Example 134] | 84 | 74
Cc1cc(OCC2(C(=O)O)CC2)ncc1-c1cnc(-c2ncc(C(F)(F)F)[nH]2)c(F)c1 [Example 136] | 64 | 62
Cc1cc(OCC2(C(=O)O)CCC2)ncc1-c1cnc(-c2ncc(C(F)(F)F)[nH]2)c(F)c1 [Example 137] | 81 | 83
CCC(CC)(COc1cc(C)c(-c2ccc(-c3ncc(C(F)(F)F)[nH]3)c(Cl)c2)cn1)C(=O)O [Example 140] | 68 | 78
